pIC50: −log10 of the molar value.
Target: T1, human IBAT (Homo sapiens, UniProt Q12908)
T1 construct: expressed in transfected cells; host or cells: Baby hamster kidney (BHK) cells, H14 cells
T1 sequence (Q12908 1-348): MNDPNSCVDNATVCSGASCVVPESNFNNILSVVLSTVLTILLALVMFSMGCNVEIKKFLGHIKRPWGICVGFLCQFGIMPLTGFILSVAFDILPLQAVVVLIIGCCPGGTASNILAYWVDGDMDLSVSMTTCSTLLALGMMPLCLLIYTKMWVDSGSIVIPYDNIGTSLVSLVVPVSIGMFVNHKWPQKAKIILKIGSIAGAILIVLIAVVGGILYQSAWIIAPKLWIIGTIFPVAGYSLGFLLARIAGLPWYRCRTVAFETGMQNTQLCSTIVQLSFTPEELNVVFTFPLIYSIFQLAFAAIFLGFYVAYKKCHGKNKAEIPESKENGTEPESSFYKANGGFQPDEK
Assay: In vitro assay of compounds that inhibit IBAT-mediated uptake of [14C]-taurocholate (TC) in H14 cells
Type: cell-based
Conditions: Table 8, 1, 4 and 1, 5 benzothiazipines
Procedure: In Vitro Assay of Compounds that Inhibit IBAT-Mediated Uptake of [^14C]-Taurocholate (TC) in H14Cells
Baby hamster kidney cells (BHK) transfected with the cDNA of human IBAT (H14 cells) are seeded in 96 well Top-Count tissue culture plates at 60,000 cells/well for assays run within 24 hours of seeding, 30,000 cells/well for assays run within 48 hours, and 10,000 cells/well for assays run within 72 hours.
On the day of assay, the cell monolayer is gently washed once with […] (Dulbecco's Modified Eagle's medium with 4.5 g/L glucose plus 0.2% (w/v) fatty acid free bovine serum albumin ((FAF)BSA). To each well […] of a two-fold concentrate of test compound in assay buffer is added along with […] of […] [^14C]-taurocholate in assay buffer (final concentration of […] [^14C]-taurocholate). The cell culture plates are incubated 2 hours at 37° C. prior to gently washing each well twice with […] 4° C. Dulbecco's phosphate-buffered saline (PBS) containing 0.2% (w/v) (FAF)BSA. The wells are then gently washed once with […] 4° C. PBS without (FAF)BSA. To each […] of liquid, scintillation counting fluid is added. The plates are heat sealed and shaken for 30 minutes at room temperature prior to measuring the amount of radioactivity in each well on a Packard Top-Count instrument.

pIC50: 6.30
SMILES: CCCCC1(CCCC)CS(=O)(=O)c2ccc(N(C)C)cc2[C@@H](c2ccc(OC)cc2)N1 (racemic) [Compound 2, 3.3-Dibutyl-2.3,4,5-tetrahydro-7-dimethylamino-5-(4′-methoxyphenyl)-1,4-benzothiazepine 1,1-dioxide]
